A short description of data set [1]: Biorelevant solubility in FaSSIF and FeSSIF. In kind it is physicochemical. The protocol:
FaSSIF and fed state simulated intestinal fluid (FeSSIF) was prepared according to the instructions by biorelevant.com. FeSSIF was used directly, whereas FaSSIF was left at room temperature for 2 h prior to usage. Excess venetoclax was added to 2 mL of biorelevant media and placed in a water bath shaker at 200 shakes/min (GLS400, Grant Instruments, UK) and 37 °C. Samples were taken after 3, 6, and 24 h and centrifuged at 21,380g and 37 °C for 15 min (Mikro 200 R, Andreas Hettich GmbH & Co. KG, Germany). The supernatant was transferred to a new sample tube and centrifuged again under identical conditions. Subsequently, the supernatant was diluted with the mobile phase before analysis by HPLC.
The samples were analyzed using an Agilent 1200 series HPLC system (Agilent Technology Inc., US) that comprised a binary pump, degasser, autosampler, and variable wavelength detector. Data were analyzed using the software EZChrom Elite version 3.2. Venetoclax was separated from the sample matrix with a Zorbax Eclipse Plus-C18 column (5 μm, 4.6 mm × 150 mm) including a Zorbax Eclipse Plus-C18 guard column (5 μm, 4.6 mm × 12.5 mm) at 40 °C. The mobile phase consisted of (a) acetonitrile with 0.5% trifluoroacetic acid (TFA) and (b) water with 0.5% TFA at a ratio of 53:47 (a/b v/v) and was used at a flow rate of 1 mL/min. The injection volume was 20 μL and the detection wavelength was set to 316 nm. The limit of detection was 20 ng/mL and the limit of quantification (LOQ) was 65 ng/mL determined using the standard error of the y-intercept according to the International Council for Harmonization (ICH) Q2 guidelines.[34]

Data set [2] in a line: Venetoclax solubility in FaSSIF and FaSSIF with dissolved PI. To be noted: FaSSIF without PI, reference of the PI test. In kind it is physicochemical. The protocol: Additionally, the solubility of venetoclax was determined in FaSSIF with dissolved PI. […] 250 μL of samples were taken at 3, 6, and 24 h and filtered through a 0.2 μm syringe filter (Whatman Spartan 13/0.2), diluted with acetonitrile (containing 0.5% (v/v) TFA), and analyzed by HPLC as described above.

For data set [3] the following is noted: cited from earlier work.
For data set [4] the following is noted: cited from earlier work. The source holds these as a separate data set.
On the set-up of data set [5]: method as in PMID 28993217. To be noted: cited from earlier work.

Structures are written as SMILES. ≈ marks a conversion by molar mass, not a printed value. Where two headings read alike, the source gives them in different places.

For `CC1(C)CCC(CN2CCN(c3ccc(C(=O)NS(=O)(=O)c4ccc(NCC5CCOCC5)c([N+](=O)[O-])c4)c(Oc4cnc5[nH]ccc5c4)c3)CC2)=C(c2ccc(Cl)cc2)C1` [venetoclax], the “share of a 100 mg dose dissolved in 250 mL gastrointestinal fluid at FaSSIF solubility” value in data set [1] (FaSSIF, 100 mg dose in 250 mL) stood at 1.7%. The solubility in data set [1] (FaSSIF, 37 °C, n = 3) is 6.8 ± 1.8 µg/mL (≈ 7.83 µM); in data set [2], 5.2 ± 0.4 µg/mL (≈ 5.99 µM). For the same molecule, the “solubility increase in the fed state (FeSSIF) over FaSSIF” value in data set [1] (FeSSIF vs FaSSIF, 37 °C) is 3.9 fold. The “share of a 100 mg dose dissolved at FeSSIF solubility” value in data set [1] (FeSSIF, 100 mg dose) is listed as 6.7%. Further, the BCS classification entry in data set [3] (based on low aqueous solubility and permeability) was “BCS class IV”. The “log P” value in data set [3] is 5.5. Further, the “previously reported venetoclax bioavailability in fasted pigs” value in data set [4] was 17.3 ± 5.5%. Moreover, the “amorphous solubility in FaSSIF” value in data set [5] (pH 5.3) was 20.7 ± 0.5 µg/mL; in data set [5] (pH 6.9) it was 33.7 ± 13.5 µg/mL. The “amorphous solubility in FeSSIF” value in data set [5] (FeSSIF, pH 5.3) is 26.4 ± 0.2 µg/mL; in data set [5] (FeSSIF, pH 6.9), 54.6 ± 2.0 µg/mL. The “reported amorphous solubility in FeSSIF” value in data set [5] (FeSSIF) was 26.4 to 54.6 µg/mL.

In general, solubility refers to the concentration that dissolves in the medium under given conditions. What is called log P is the decadic logarithm of the partition coefficient of the neutral form, usually between octanol and water.

Values taken from PMC8289286, “In Silico, In Vitro, and In Vivo Evaluation of Precipitation Inhibitors in Supersaturated Lipid-Based Formulations of Venetoclax” (Molecular Pharmaceutics, 2021).
